Test results: PubChem BioAssay (NCI)
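In this assay, cells in 96-well plates receive the compound at five concentrations for 48 hours. Endpoints are linearly interpolated between the surrounding concentrations. TGI: concentration producing complete growth inhibition.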

How the values were obtained:
Experiment in all cases: inhibition of tumour cell growth, NCI panel, 48 h
MDA-N = test system: MDA-N
PC-3 prostate = test system: PC-3 prostate
UACC-62 melanoma = test system: UACC-62 melanoma
MDA-MB-435 = test system: MDA-MB-435
HCT-116 colon = test system: HCT-116 colon
U251 CNS = test system: U251 CNS
SK-MEL-28 melanoma = test system: SK-MEL-28 melanoma
COLO 205 colon = test system: COLO 205 colon
NCI-H226 lung = test system: NCI-H226 lung
ACHN renal = test system: ACHN renal
UO-31 renal = test system: UO-31 renal
OVCAR-3 ovarian = test system: OVCAR-3 ovarian
SNB-19 CNS = test system: SNB-19 CNS
IGROV1 ovarian = test system: IGROV1 ovarian
A549 NSCLC = test system: A549 NSCLC
CAKI-1 renal = test system: CAKI-1 renal
NCI-H522 lung = test system: NCI-H522 lung
HS 578T breast = test system: HS 578T breast
NCI-H23 lung = test system: NCI-H23 lung
MOLT-4 leukemia = test system: MOLT-4 leukemia
786-0 renal = test system: 786-0 renal
SW-620 colon = test system: SW-620 colon
SNB-75 CNS = test system: SNB-75 CNS
SK-MEL-5 melanoma = test system: SK-MEL-5 melanoma
SF-268 CNS = test system: SF-268 CNS
MCF7 breast = test system: MCF7 breast
MALME-3M melanoma = test system: MALME-3M melanoma
NCI/ADR-RES ovarian = test system: NCI/ADR-RES ovarian
M14 melanoma = test system: M14 melanoma
KM12 colon = test system: KM12 colon
A498 renal = test system: A498 renal
OVCAR-4 ovarian = test system: OVCAR-4 ovarian
DU-145 prostate = test system: DU-145 prostate
SN12C renal = test system: SN12C renal
HOP-92 NSCLC = test system: HOP-92 NSCLC
T-47D breast = test system: T-47D breast
OVCAR-5 ovarian = test system: OVCAR-5 ovarian
CCRF-CEM leukemia = test system: CCRF-CEM leukemia
K-562 leukemia = test system: K-562 leukemia
RPMI-8226 leukemia = test system: RPMI-8226 leukemia
BT-549 breast = test system: BT-549 breast
RXF 393 renal = test system: RXF 393 renal
SK-OV-3 ovarian = test system: SK-OV-3 ovarian
OVCAR-8 ovarian = test system: OVCAR-8 ovarian
HCC-2998 colon = test system: HCC-2998 colon
NCI-H460 lung = test system: NCI-H460 lung
SF-295 CNS = test system: SF-295 CNS
HT29 colon = test system: HT29 colon
EKVX NSCLC = test system: EKVX NSCLC
MDA-MB-231 breast = test system: MDA-MB-231 breast
HCT-15 colon = test system: HCT-15 colon
HOP-62 NSCLC = test system: HOP-62 NSCLC
LOX IMVI melanoma = test system: LOX IMVI melanoma
SK-MEL-2 melanoma = test system: SK-MEL-2 melanoma
UACC-257 melanoma = test system: UACC-257 melanoma
SF-539 CNS = test system: SF-539 CNS
TK-10 renal = test system: TK-10 renal

**Q.** Which results are given for CC(C)C1=CC(=O)[C@@](C)(C2[C@H](O)C[C@@]3(C)[C@@H]4CC=C5[C@@H](CC[C@@H](OC6OCC(O)C(O)C6OC6OC(C)C(O)C(O)C6O)C5(C)C)[C@]4(C)C(=O)C[C@]23C)O1 (some centres undefined)?
**A.** TGI (MDA-N): > 100 µM; TGI (PC-3 prostate): > 100 µM; TGI (UACC-62 melanoma): > 100 µM; TGI (MDA-MB-435): > 100 µM; TGI (HCT-116 colon): > 100 µM; TGI (U251 CNS): > 100 µM; TGI (SK-MEL-28 melanoma): > 100 µM; TGI (COLO 205 colon): > 100 µM; TGI (NCI-H226 lung): > 100 µM; TGI (ACHN renal): > 100 µM; TGI (UO-31 renal): > 100 µM; TGI (OVCAR-3 ovarian): > 100 µM; TGI (SNB-19 CNS): > 100 µM; TGI (IGROV1 ovarian): > 100 µM; TGI (A549 NSCLC): > 100 µM; TGI (CAKI-1 renal): > 100 µM; TGI (NCI-H522 lung): > 100 µM; TGI (HS 578T breast): > 100 µM; TGI (NCI-H23 lung): > 100 µM; TGI (MOLT-4 leukemia): > 100 µM; TGI (786-0 renal): > 100 µM; TGI (SW-620 colon): > 100 µM; TGI (SNB-75 CNS): > 100 µM; TGI (SK-MEL-5 melanoma): > 100 µM; TGI (SF-268 CNS): > 100 µM; TGI (MCF7 breast): > 100 µM; TGI (MALME-3M melanoma): > 100 µM; TGI (NCI/ADR-RES ovarian): > 100 µM; TGI (M14 melanoma): > 100 µM; TGI (KM12 colon): > 100 µM; TGI (A498 renal): > 100 µM; TGI (OVCAR-4 ovarian): > 100 µM; TGI (DU-145 prostate): > 100 µM; TGI (SN12C renal): > 100 µM; TGI (HOP-92 NSCLC): > 100 µM; TGI (T-47D breast): > 100 µM; TGI (OVCAR-5 ovarian): > 100 µM; TGI (CCRF-CEM leukemia): > 100 µM; TGI (K-562 leukemia): > 100 µM; TGI (RPMI-8226 leukemia): > 100 µM; TGI (BT-549 breast): > 100 µM; TGI (RXF 393 renal): > 100 µM; TGI (SK-OV-3 ovarian): > 100 µM; TGI (OVCAR-8 ovarian): > 100 µM; TGI (HCC-2998 colon): > 100 µM; TGI (NCI-H460 lung): > 100 µM; TGI (SF-295 CNS): > 100 µM; TGI (HT29 colon): > 100 µM; TGI (EKVX NSCLC): > 100 µM; TGI (MDA-MB-231 breast): > 100 µM; TGI (HCT-15 colon): > 100 µM; TGI (HOP-62 NSCLC): > 100 µM

**Q.** Which results are given for Brc1cccc(C2ON=C(c3ccccc3)N2C23CC4CC(CC(C4)C2)C3)c1 (centres undefined)?
**A.** TGI (MDA-N): > 10 µM; TGI (PC-3 prostate): > 10 µM; TGI (UACC-62 melanoma): > 10 µM; TGI (LOX IMVI melanoma): > 10 µM; TGI (MDA-MB-435): > 10 µM; TGI (HCT-116 colon): > 10 µM; TGI (U251 CNS): > 10 µM; TGI (SK-MEL-28 melanoma): > 10 µM; TGI (COLO 205 colon): > 10 µM; TGI (NCI-H226 lung): > 10 µM; TGI (ACHN renal): > 10 µM; TGI (UO-31 renal): > 10 µM; TGI (OVCAR-3 ovarian): > 10 µM; TGI (SNB-19 CNS): > 10 µM; TGI (IGROV1 ovarian): > 10 µM; TGI (A549 NSCLC): > 10 µM; TGI (CAKI-1 renal): > 10 µM; TGI (SK-MEL-2 melanoma): > 10 µM; TGI (NCI-H522 lung): > 10 µM; TGI (UACC-257 melanoma): > 10 µM; TGI (HS 578T breast): > 10 µM; TGI (NCI-H23 lung): > 10 µM; TGI (SF-539 CNS): > 10 µM; TGI (MOLT-4 leukemia): > 10 µM; TGI (786-0 renal): > 10 µM; TGI (SW-620 colon): > 10 µM; TGI (SNB-75 CNS): > 10 µM; TGI (SK-MEL-5 melanoma): > 10 µM; TGI (SF-268 CNS): > 10 µM; TGI (MCF7 breast): > 10 µM; TGI (MALME-3M melanoma): > 10 µM; TGI (NCI/ADR-RES ovarian): > 10 µM; TGI (M14 melanoma): > 10 µM; TGI (KM12 colon): > 10 µM; TGI (A498 renal): > 10 µM; TGI (OVCAR-4 ovarian): > 10 µM; TGI (DU-145 prostate): > 10 µM; TGI (SN12C renal): > 10 µM; TGI (HOP-92 NSCLC): > 10 µM; TGI (T-47D breast): > 10 µM; TGI (OVCAR-5 ovarian): > 10 µM; TGI (CCRF-CEM leukemia): > 10 µM; TGI (K-562 leukemia): > 10 µM; TGI (RPMI-8226 leukemia): > 10 µM; TGI (BT-549 breast): > 10 µM; TGI (RXF 393 renal): > 10 µM; TGI (SK-OV-3 ovarian): > 10 µM; TGI (OVCAR-8 ovarian): > 10 µM; TGI (HCC-2998 colon): > 10 µM; TGI (NCI-H460 lung): > 10 µM; TGI (SF-295 CNS): > 10 µM; TGI (HT29 colon): > 10 µM; TGI (EKVX NSCLC): > 10 µM; TGI (MDA-MB-231 breast): > 10 µM; TGI (HCT-15 colon): > 10 µM; TGI (HOP-62 NSCLC): > 10 µM; TGI (TK-10 renal): > 10 µM
